US5608104A, “Immunological detection method of pyrethroid compound, haptenic compound, intermediate for the haptenic compound, immunogen and antibody” (Mitsui Toatsu Chemicals, Inc., priority 1993, dated 1997)

Assays:
[1] = test system: anti-etofenprox antibody I (E-antibody I); test: Indirect competitive ELISA employing E-antibody I; format: binding, rabbit; settings: inhibition rate relative to etofenprox at its IC50 concentration (=100%); antibody 1/40,000, 50% methanol
Method: 1. To a 96-well polystyrene microtiter plate, a solution of the conjugate between rabbit serum albumin (RSA) and the haptenic compound (I) dissolved in a coating buffer solution [10 mM phosphate buffer solution (pH 7.5), 100 mM NaC1] to give […] was added as an antigen at a ratio of 0.1 ml/well, followed by incubation at 4° C. overnight, whereby the antigen was adsorbed on the plate. After the excess solution was drained, a 3% solution of skim milk was added to the wells at a ratio of 0.3 ml/well, followed by incubation at 25° C. for one hour. The plate was washed thrice with a washing buffer [10 mM phosphate buffer solution (pH 7.2), 0.8% NaC1, 0.02% KCl, 0.02% "Tween 20"], whereby an antigen-coated plate was obtained.
2. The E-antibody I was diluted 20,000-fold with a diluting buffer [10 mM phosphate buffer solution (pH 7.5), 0.8% NaCl, 0.02% KCl] and was then mixed with a solution of etofenprox in methanol at a ratio of 1:1 to give an antibody concentration and a methanol concentration, both in the resulting solution, of 1/40,000 and 50%, respectively. The solution was reacted by incubation at 25° C. for one hour. The reaction mixture was added to the antigen-coated plate at a rate of 0.1 ml/well, followed by the reaction at 25° C. for one hour. The plate was then washed thrice with the washing buffer.
3. A conjugate between horseradish peroxidase and anti-rabbit IgG goat IgG (a second antibody) was diluted 10,000-fold with the washing buffer. The diluted conjugate was added to the antigen-coated plate at a rate of 0.1 ml/well, followed by incubation at 25° C. for one hour. The plate was washed thrice with the washing buffer.
4. To the antigen-coated plate, a chromogenic solution of o-phenylenediamine [0.2% (v/v) o-phenylenediamine and 100 mM phosphate-citrate buffer solution [pH 5.0, 0.003% (v/v) hydrogen peroxide] was added in an amount of 0.2 ml/well, followed by incubation at 25° C. for 10 minutes. The enzymatic reaction was then terminated by adding 4N sulfuric acid to the plate by at a rate of 0.05 ml/well. The absorbances at 492 nm and 630 nm were thereafter measured, respectively. According to this method, etofenprox concentrations ranging from 10 ng/ml to 10,000 ng/ml were successfully measured.
A solution of each of various pyrethroid compounds in methanol (having a concentration of 2-20,000 ng/ml) was mixed with a solution of the E antibody I, which had been diluted 20,000-fold with a diluting buffer, at a ratio of 1:1, followed by incubation at 25° C. for one hour.
Using the reaction mixture, measurement was conducted by the ELISA method as described in Example 8. The absorbance of the reaction mixture which had been obtained without addition of any pyrethroid compound is designated as 100%. The concentration of etophenprox. which inhibited 50% of the absorbance is designated as IC50 concentration. The inhibition rates of other pyrethroid compounds when the inhibition rate of ethophenprox at IC50 concentration is designated as 100% are shown as cross reactivity in Table 1.

[2] = test system: anti-etofenprox antibody II (E-antibody II); test: Indirect competitive ELISA employing E-antibody II; format: binding, rabbit; settings: inhibition rate relative to etofenprox at its IC50 concentration (=100%); antibody 1/80,000, 20% methanol
Method: The ELISA method employing E-antibody II, on the other hand, will be described next. As the antigen, a 0.01 μg/ml solution of the conjugate between the haptenic compound (II) and RSA was employed. An E-antibody II solution, which had been diluted 64,000-fold, and a methanol solution of etofenprox were mixed at a ratio of 4:1 to give an antibody concentration and methanol concentration, each in the resulting solution, of 1/80,000 and 20%, respectively. The resulting solution was then reacted. As a second antibody, antirabbit IgG goat IgG in the form of a 5000-fold dilution was employed. In a similar manner to the above ELISA method, etofenprox concentrations ranging from 3 ng/ml to 1,000 ng/ml were successfully measured.
In addition, solutions of each of various pyrethroid compounds in methanol (concentration: 5-50,000 ng/ml) were each mixed with an E antibody II solution, which had been diluted 64,000-fold, at a ratio of 1:4, followed by incubation at 25° C. for one hour. The reaction mixture was treated as described in Example 8 and its cross reactivity was obtained.
The inhibition rates of other pyrethroid compounds when the inhibition rate of ethophenprox at IC50 concentration is designated as 100% are also shown as cross reactivity in Table 1.

## C=CCC1=C(C)C(OC(=O)C2C(C=C(C)C)C2(C)C)CC1=O (stereo not shown) [Allethrin, allethrin]
[1]
  Cross reactivity (%) E antibody I: 46%
[2]
  Cross reactivity (%) E antibody II: 54%

## Cc1c(COC(=O)C2C(C=C(Cl)C(F)(F)F)C2(C)C)cccc1-c1ccccc1 (stereo not shown) [Biphenthrin, biphenthrin]
[1]
  Cross reactivity (%) E antibody I: 86%
[2]
  Cross reactivity (%) E antibody II: 81%

## CCOc1ccc(C2(C(=O)OC(C#N)c3cccc(Oc4ccccc4)c3)CC2(Cl)Cl)cc1 (stereo not shown) [Cycloprothrin, cycloprothrin]
[1]
  Cross reactivity (%) E antibody I: 103%
[2]
  Cross reactivity (%) E antibody II: 54%

## CC1(C)C(/C=C(\Cl)C(F)(F)F)C1C(=O)OC(C#N)c1cccc(Oc2ccccc2)c1 (stereo not shown) [Cyhalothrin, cyhalothrin]
[1]
  Cross reactivity (%) E antibody I: 92%
[2]
  Cross reactivity (%) E antibody II: 36%

## CC1(C)C(C(=O)OC(C#N)c2cccc(Oc3ccccc3)c2)C1(C)C (stereo not shown) [Fenpropathrin, fenpropathrin]
[1]
  Cross reactivity (%) E antibody I: 136%
[2]
  Cross reactivity (%) E antibody II: 48%

## CC(C)C(C(=O)OC(C#N)c1cccc(Oc2ccccc2)c1)c1ccc(Cl)cc1 (stereo not shown) [Fenvarerate, fenvarerate]
[1]
  Cross reactivity (%) E antibody I: 47%
[2]
  Cross reactivity (%) E antibody II: 50%

## CC(C)[C@H](C(=O)OC(C#N)c1cccc(Oc2ccccc2)c1)c1ccc(OC(F)F)cc1 (stereo partly shown) [Flucythrinate, flucythrinate]
[1]
  Cross reactivity (%) E antibody I: 126%
[2]
  Cross reactivity (%) E antibody II: 60%

## CCOc1ccc(C(COCc2cccc(Oc3ccc(Cl)cc3)c2)C(F)(F)F)cc1 (stereo not shown) [Flufenprox]
[1]
  Cross reactivity (%) E antibody I: 108%
[2]
  Cross reactivity (%) E antibody II: 74%

## CC(C)[C@H](Nc1ccc(C(F)(F)F)cc1Cl)C(=O)OC(C#N)c1cccc(Oc2ccccc2)c1 (stereo partly shown) [Fluvalinate, fluvalinate]
[1]
  Cross reactivity (%) E antibody I: 70%
[2]
  Cross reactivity (%) E antibody II: 23%

## CC(C)(COCc1cccc(Oc2ccccc2)c1)c1ccc(OC(F)(F)Br)cc1 [Halfenprox, halfenprox]
[1]
  Cross reactivity (%) E antibody I: 85%
[2]
  Cross reactivity (%) E antibody II: 75%

## CC1(C)[C@H](C(=O)OCc2coc(Cc3ccccc3)c2)[C@@H]1/C=C1\CCSC1=O [Kadethrin, kadethrin]
[1]
  Cross reactivity (%) E antibody I: 62%
[2]
  Cross reactivity (%) E antibody II: 164%

## CCOc1ccc(C(C)(C)CCCc2cccc(Oc3ccccc3)c2)cc1 [MTI-790, 1-(3-phenoxyphenyl)-4-(4-ethoxyphenyl)-4-methylpentane]
[1]
  Cross reactivity (%) E antibody I: 23%
[2]
  Cross reactivity (%) E antibody II: 37%

## CCOc1ccc(C(C)(C)CCCc2ccc(F)c(Oc3ccccc3)c2)cc1 [MTI-800, 1-(3-phenoxy-4-fluorophenyl)-4-(4-ethoxyphenyl)-4-methylpentane]
[1]
  Cross reactivity (%) E antibody I: 54%
[2]
  Cross reactivity (%) E antibody II: 34%

## CC(C)=CC1C(C(=O)OCc2coc(Cc3ccccc3)c2)C1(C)C (stereo not shown) [Resmethrin, resmethrin]
[1]
  Cross reactivity (%) E antibody I: 74%
[2]
  Cross reactivity (%) E antibody II: 85%

## CCOc1ccc([Si](C)(C)OCc2cccc(Oc3ccccc3)c2)cc1 [SSI-116, dimethyl-(4-ethoxyphenyl)-(3-phenoxybenzyloxy)silane]
[1]
  Cross reactivity (%) E antibody I: 70%
[2]
  Cross reactivity (%) E antibody II: 103%

## CCOc1ccc([Si](C)(C)CCCc2ccc(F)c(Oc3ccccc3)c2)cc1 [Silafluofen, silafluofen]
[1]
  Cross reactivity (%) E antibody I: 57%
[2]
  Cross reactivity (%) E antibody II: 32%

## CC1(C)[C@H](C(=O)O[C@H](C#N)c2cccc(Oc3ccccc3)c2)[C@@H]1C(Br)C(Br)(Br)Br (stereo partly shown) [Tralomethrin, tralomethrin]
[1]
  Cross reactivity (%) E antibody I: 116%
[2]
  Cross reactivity (%) E antibody II: 67%
